Reference: ChEMBL document CHEMBL1201862, “PubChem BioAssay data set” (2004)
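Step 1: Grow cells in 96-well plates. Step 2: Expose to compound for 48 hours at 5 concentrations. Step 3: Interpolate endpoints linearly; if unreached, use highest concentration. GI50 is the concentration that inhibits growth by half.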 Active and inactive are the calls of the source. Cut-off read from the data, not from the text of the source: active = GI50 up to about 1.1 µM and inactive = higher.

Experiments:
Assay in all cases: DTP human tumour cell line panel, 48 h
IGROV-1 = tested on: IGROV-1
SF-295 = tested on: SF-295
T47D = tested on: T47D
U-251 = tested on: U-251
UACC-62 = tested on: UACC-62
MDA-N = tested on: MDA-N
OVCAR-5 = tested on: OVCAR-5
EKVX = tested on: EKVX
HCT-15 = tested on: HCT-15
SF-539 = tested on: SF-539
RXF 393 = tested on: RXF 393
M14 = tested on: M14
HCT-116 = tested on: HCT-116
KM12 = tested on: KM12
OVCAR-3 = tested on: OVCAR-3
ACHN = tested on: ACHN
SK-MEL-28 = tested on: SK-MEL-28
SK-MEL-2 = tested on: SK-MEL-2
SW-620 = tested on: SW-620
SK-MEL-5 = tested on: SK-MEL-5
UACC-257 = tested on: UACC-257
CAKI-1 = tested on: CAKI-1
RPMI-8226 = tested on: RPMI-8226
SNB-75 = tested on: SNB-75
OVCAR-8 = tested on: OVCAR-8
HOP-62 = tested on: HOP-62
SNB-19 = tested on: SNB-19
SN12C = tested on: SN12C
A498 = tested on: A498
K562 = tested on: K562
UO-31 = tested on: UO-31
NCI-H23 = tested on: NCI-H23
A549 = tested on: A549
CCRF-CEM = tested on: CCRF-CEM
786-0 = tested on: 786-0
MCF7 = tested on: MCF7
DU-145 = tested on: DU-145
NCI-H226 = tested on: NCI-H226
COLO 205 = tested on: COLO 205
NCI-H460 = tested on: NCI-H460
NCI/ADR-RES = tested on: NCI/ADR-RES
LOX IMVI = tested on: LOX IMVI
SR = tested on: SR
HOP-92 = tested on: HOP-92
OVCAR-4 = tested on: OVCAR-4
PC-3 = tested on: PC-3
BT-549 = tested on: BT-549
HCC 2998 = tested on: HCC 2998
MDA-MB-231 = tested on: MDA-MB-231
MOLT-4 = tested on: MOLT-4
MDA-MB-435 = tested on: MDA-MB-435
SK-OV-3 = tested on: SK-OV-3
NCI-H522 = tested on: NCI-H522
HT-29 = tested on: HT-29
SF-268 = tested on: SF-268
Malme-3M = tested on: Malme-3M
TK-10 = tested on: TK-10
HL-60 = tested on: HL-60
Hs-578T = tested on: Hs-578T

CSC12c3cc(C)n(-c4ccc([N+](=O)[O-])cc4)c3CC(C)(C)CN1C(=O)C2Oc1ccccc1 (configuration not stated)
GI50 (IGROV-1): > 100 µM (inactive) | GI50 (SF-295): > 100 µM (inactive) | GI50 (T47D): 32.7 µM (inactive) | GI50 (U-251): > 100 µM (inactive) | GI50 (UACC-62): 22.2 µM (inactive) | GI50 (MDA-N): > 100 µM (inactive) | GI50 (OVCAR-5): > 100 µM (inactive) | GI50 (EKVX): 36 µM (inactive) | GI50 (HCT-15): > 100 µM | GI50 (SF-539): > 100 µM (inactive) | GI50 (RXF 393): > 100 µM (inactive) | GI50 (M14): > 100 µM (inactive) | GI50 (HCT-116): 54.2 µM (inactive) | GI50 (KM12): 1.73 µM (inactive) | GI50 (OVCAR-3): > 100 µM (inactive) | GI50 (ACHN): > 100 µM (inactive) | GI50 (SK-MEL-28): > 100 µM (inactive) | GI50 (SK-MEL-2): > 100 µM (inactive) | GI50 (SW-620): > 100 µM (inactive) | GI50 (SK-MEL-5): > 100 µM (inactive) | GI50 (UACC-257): 70 µM (inactive) | GI50 (CAKI-1): 18.5 µM (inactive) | GI50 (RPMI-8226): 31.9 µM (inactive) | GI50 (SNB-75): 10.6 µM (inactive) | GI50 (OVCAR-8): > 100 µM (inactive) | GI50 (HOP-62): > 100 µM (inactive) | GI50 (SNB-19): 80.9 µM (inactive) | GI50 (SN12C): > 100 µM (inactive) | GI50 (A498): 10.6 µM (inactive) | GI50 (K562): > 100 µM (inactive) | GI50 (UO-31): > 100 µM (inactive) | GI50 (NCI-H23): 74.1 µM (inactive) | GI50 (A549): 46.1 µM (inactive) | GI50 (CCRF-CEM): > 100 µM (inactive) | GI50 (786-0): > 100 µM (inactive) | GI50 (MCF7): 28.6 µM (inactive) | GI50 (DU-145): > 100 µM (inactive) | GI50 (NCI-H226): > 100 µM (inactive) | GI50 (COLO 205): > 100 µM (inactive) | GI50 (NCI-H460): 71.9 µM (inactive) | GI50 (NCI/ADR-RES): > 100 µM (inactive) | GI50 (LOX IMVI): > 100 µM (inactive) | GI50 (SR): > 100 µM (inactive) | GI50 (HOP-92): 24.2 µM (inactive) | GI50 (OVCAR-4): 4.72 µM (inactive) | GI50 (PC-3): > 100 µM (inactive) | GI50 (BT-549): > 100 µM (inactive) | GI50 (HCC 2998): 35.5 µM (inactive) | GI50 (MDA-MB-231): 96.6 µM (inactive) | GI50 (MOLT-4): > 100 µM (inactive) | GI50 (MDA-MB-435): 19.8 µM (inactive)

CC(=O)N1CCc2c([nH]c3ccc(Br)cc23)C1c1ccccc1 (configuration not stated)
GI50 (IGROV-1): > 7.33 µM (inactive) | GI50 (SF-295): 2.4 µM (inactive) | GI50 (T47D): > 10 µM (inactive) | GI50 (U-251): 3.69 µM (inactive) | GI50 (UACC-62): > 7.13 µM (inactive) | GI50 (MDA-N): 2.61 µM (inactive) | GI50 (OVCAR-5): > 10 µM (inactive) | GI50 (EKVX): > 10 µM (inactive) | GI50 (HCT-15): 0.194 µM | GI50 (SF-539): > 6.81 µM (inactive) | GI50 (RXF 393): > 10 µM (inactive) | GI50 (M14): > 10 µM (inactive) | GI50 (HCT-116): 1.11 µM (active) | GI50 (KM12): > 3.41 µM (inactive) | GI50 (OVCAR-3): > 10 µM (inactive) | GI50 (ACHN): > 7.36 µM (inactive) | GI50 (SK-OV-3): > 7.71 µM (inactive) | GI50 (NCI-H522): > 7.82 µM (inactive) | GI50 (SK-MEL-28): > 10 µM (inactive) | GI50 (SK-MEL-2): > 10 µM (inactive) | GI50 (SW-620): 2.62 µM (inactive) | GI50 (SK-MEL-5): 2.4 µM (inactive) | GI50 (HT-29): 5.37 µM (inactive) | GI50 (UACC-257): > 10 µM (inactive) | GI50 (CAKI-1): > 9.53 µM (inactive) | GI50 (RPMI-8226): 2.29 µM (inactive) | GI50 (SF-268): > 9.02 µM (inactive) | GI50 (Malme-3M): > 10 µM (inactive) | GI50 (SNB-75): 7.96 µM (inactive) | GI50 (OVCAR-8): > 5.07 µM (inactive) | GI50 (TK-10): > 10 µM (inactive) | GI50 (HOP-62): 7.55 µM (inactive) | GI50 (SNB-19): > 10 µM (inactive) | GI50 (A498): > 10 µM (inactive) | GI50 (K562): 0.752 µM (active) | GI50 (UO-31): > 10 µM (inactive) | GI50 (A549): 0.912 µM (active) | GI50 (CCRF-CEM): 1.47 µM (inactive) | GI50 (786-0): 3.28 µM (inactive) | GI50 (MCF7): 2.75 µM (inactive) | GI50 (DU-145): > 10 µM (inactive) | GI50 (NCI-H226): > 10 µM (inactive) | GI50 (HL-60): 2.55 µM (inactive) | GI50 (COLO 205): > 10 µM (inactive) | GI50 (NCI-H460): 0.522 µM (active) | GI50 (NCI/ADR-RES): 4.16 µM (inactive) | GI50 (LOX IMVI): 2 µM (inactive) | GI50 (SR): 0.733 µM (active) | GI50 (HOP-92): > 10 µM (inactive) | GI50 (OVCAR-4): > 10 µM (inactive) | GI50 (PC-3): 1.12 µM (active) | GI50 (BT-549): 7.03 µM (inactive) | GI50 (HCC 2998): 9.95 µM (inactive) | GI50 (MOLT-4): 0.697 µM (active) | GI50 (MDA-MB-435): 2.69 µM (inactive) | GI50 (Hs-578T): > 10 µM (inactive)
